Laboratory results from patent US5061794A, “Cephalosporin derivatives, and antibacterial agents” (priority 1986, dated 1991).
Counter-ions that a name gives are not always drawn. Like-named read-outs stand apart in the source and are kept apart here.

What was measured:
Ps. cepacia 23 = assay: in vitro antibacterial activity, agar plate dilution method (MIC); format: cell-based, Pseudomonas cepacia; conditions: read-out: Minimum Inhibitory Concentration (MIC)
In short: (§1)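 Overnight Mueller Hinton broth cultures were inoculated onto Mueller Hinton agar containing serial antibiotic concentrations at 10^6 CFU/ml. Plates were incubated at 37° C. for 16 hours, and MIC (μg/ml) was recorded.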

A. calcoaceticus No. 4 = assay: as above; format: cell-based, Acinetobacter calcoaceticus; conditions: Acinetobacter calcoaceticus, NO.4, 16 h, 10^6 CFU/ml
In short: as §1

S. marcescens IAM 1184 = assay: as above; format: cell-based; conditions: Serratia marcescens, IAM1184, 16 h, read-out: Minimum Inhibitory Concentration (MIC)
In short: as §1

E. coli GN5482 = assay: as above; format: cell-based; conditions: Escherichia coli, GN5482, 16 h
In short: as §1

P. vulgaris HX-19 = assay: as above; format: cell-based; conditions: Proteus vulgaris, HX19, 16 h, P. vulgaris HX-19; 10^6 CFU/ml; read-out: Minimum Inhibitory Concentration (MIC)
In short: as §1

E. coli NIHJ JC2 = assay: as above; format: cell-based; conditions: Escherichia coli, NIHJJC2, 16 h, read-out: Minimum Inhibitory Concentration (MIC), E. coli NIHJ JC2, 10^6 CFU/ml, 37° C.
In short: as §1

K. oxytoca GN10650 = assay: as above; format: cell-based; conditions: Klebsiella oxytoca, GN10650, 16 h, read-out: Minimum Inhibitory Concentration (MIC), *K. oxytoca GN10650, lactamase-producing strain; 10^6 CFU/ml
In short: as §1

P. vulgaris No. 33 = assay: as above; format: cell-based; conditions: Proteus vulgaris, NO.33, 16 h, read-out: Minimum Inhibitory Concentration (MIC), *P. vulgaris No. 33, lactamase-producing strain; 10^6 CFU/ml
In short: as §1

K. pneumoniae No. 42 = assay: as above; format: cell-based; conditions: Klebsiella pneumoniae, 10^6 CFU/ml
In short: as §1

M. morganii GN5407 = assay: as above; format: cell-based; conditions: Morganella morganii, GN5407, 16 h, read-out: Minimum Inhibitory Concentration (MIC), *M. morganii GN5407, lactamase-producing strain; 10^6 CFU/ml
In short: as §1

S. aureus 209P NIHJ-JC1 = assay: as above; format: cell-based; conditions: Staphylococcus aureus, 16 h
In short: as §1

E. cloacae Nek 39 = assay: as above; format: cell-based; conditions: Enterobacter cloacae, NEK39, 16 h, read-out: Minimum Inhibitory Concentration (MIC), *E. cloacae Nek 39, lactamase-producing strain; 10^6 CFU/ml
In short: as §1

S. marcescens No. 16-2 = assay: as above; format: cell-based; conditions: Serratia marcescens, NO.162, 16 h
In short: as §1

K. pneumoniae PCI-602 = assay: as above; format: cell-based; conditions: Klebsiella pneumoniae, PCI602, 16 h, read-out: Minimum Inhibitory Concentration (MIC), K. pneumoniae PCI-602; 10^6 CFU/ml
In short: as §1

E. cloacae 963 = assay: as above; format: cell-based; conditions: 10^6 CFU/ml
In short: as §1

E. coli CSH2 (RK1) = assay: microbe, parasite or virus in culture; format: cell-based; conditions: Escherichia coli, 16 h, read-out: Minimum Inhibitory Concentration (MIC), *E. coli CSH2 (RK1), lactamase-producing strain; 10^6 CFU/ml
In short: as §1

E. coli CSH(RE45) = assay: microbe, parasite or virus in culture; format: cell-based; conditions: Escherichia coli, 16 h, read-out: Minimum Inhibitory Concentration (MIC), *E. coli CSH(RE45), lactamase-producing strain; 10^6 CFU/ml
In short: as §1

Ps. aeruginosa AKR17 = assay: in vitro antibacterial activity, agar plate dilution method (MIC); format: cell-based, Pseudomonas aeruginosa; conditions: Pseudomonas aeruginosa
In short: as §1

Ps. aeruginosa IF03445 = assay: as above; format: cell-based, Pseudomonas aeruginosa; conditions: Pseudomonas aeruginosa, IF03445, 16 h, read-out: Minimum Inhibitory Concentration (MIC), Ps. aeruginosa IF03445; 10^6 CFU/ml
In short: as §1

Ps. aeruginosa AK 109 = assay: as above; format: cell-based, Pseudomonas aeruginosa; conditions: Pseudomonas aeruginosa, AK109, 16 h
In short: as §1

[1] = read-out: Minimum Inhibitory Concentration (MIC), A. calcoaceticus No. 4
[2] = read-out: Minimum Inhibitory Concentration (MIC)
[3] = read-out: Minimum Inhibitory Concentration (MIC), S. aureus 209P NIHJ-JC1, 10^6 CFU/ml, 37° C., 16 hours
[4] = Enterobacter cloacae, 963, 16 h, read-out: Minimum Inhibitory Concentration (MIC), E. cloacae 963
[5] = 16 h, Ps. aeruginosa AKR17, 10^6 CFU/ml, read-out: Minimum Inhibitory Concentration (MIC)
[6] = Ps. aeruginosa AK 109, 10^6 CFU/ml, read-out: Minimum Inhibitory Concentration (MIC)
[7] = Burkholderia cepacia, 16 h, Ps. cepacia 23, 10^6 CFU/ml
[8] = S. marcescens IAM 1184, 10^6 CFU/ml
[9] = read-out: Minimum Inhibitory Concentration (MIC), *E. coli GN5482, lactamase-producing strain, 10^6 CFU/ml
[10] = NO.42, 16 h, read-out: Minimum Inhibitory Concentration (MIC), *K. pneumoniae No. 42, lactamase-producing strain
[11] = Enterobacter cloacae, 16 h, E. cloacae 963, read-out: Minimum Inhibitory Concentration (MIC)
[12] = A. calcoaceticus No. 4, read-out: Minimum Inhibitory Concentration (MIC)
[13] = read-out: Minimum Inhibitory Concentration (MIC), *S. marcescens No. 16-2, lactamase-producing strain, 10^6 CFU/ml
[14] = read-out: Minimum Inhibitory Concentration (MIC), Ps. aeruginosa AK 109, 10^6 CFU/ml

Row | Compound | MIC (A. calcoaceticus No. 4; [1]) [µg/mL] | MIC (E. coli GN5482; [2]) [µg/mL] | MIC (P. vulgaris HX-19) [µg/mL] | MIC (E. coli NIHJ JC2) [µg/mL] | MIC (K. oxytoca GN10650) [µg/mL] | MIC (P. vulgaris No. 33) [µg/mL] | MIC (M. morganii GN5407) [µg/mL] | MIC (S. aureus 209P NIHJ-JC1; [3]) [µg/mL] | MIC (E. cloacae Nek 39) [µg/mL] | MIC (S. marcescens No. 16-2; [2]) [µg/mL] | MIC (K. pneumoniae PCI-602) [µg/mL] | MIC (E. cloacae 963; [4]) [µg/mL] | MIC (E. coli CSH2 (RK1)) [µg/mL] | MIC (E. coli CSH(RE45)) [µg/mL] | MIC (Ps. aeruginosa AKR17; [5]) [µg/mL] | MIC (Ps. aeruginosa IF03445) [µg/mL] | MIC (Ps. cepacia 23; [7]) [µg/mL] | MIC (S. marcescens IAM 1184; [8]) [µg/mL] | MIC (E. coli GN5482; [9]) [µg/mL] | MIC (K. pneumoniae No. 42; [10]) [µg/mL] | also measured
1 | C#CCO/N=C(\C(=O)N[C@@H]1C(=O)N2C(C(=O)O)=C(CSc3nnc(-c4ccc(O)c(O)c4)s3)CS[C@H]12)c1csc(N)n1 [Ex. 31, sodium 7β-[2-(2-aminothiazol-4-yl)-2-proparqyloxyiminoacetamido]-3-[5-(3,4-dihvdroxyphenyl)-1,3,4-thiadiazol-2-yl]thiomethyl-3-cephem-4-carboxylate] | 0.1 | 0.39 | < 0.006 | 0.1 | 0.78 | 0.025 | 0.0125 | 0.78 | 0.2 | 0.39 | < 0.006 | 0.0125 | < 0.006 | 0.0125 | 100 | 0.78 | – | – | – | – | MIC (Ps. cepacia 23; Burkholderia cepacia, 23, 16 h): 0.0125 µg/mL; MIC (S. marcescens IAM 1184): 0.0125 µg/mL; MIC (K. pneumoniae No. 42; 16 h, *K. pneumoniae No. 42, lactamase-producing strain, read-out: Minimum Inhibitory Concentration (MIC)): < 0.006 µg/mL; MIC (Ps. aeruginosa AK 109; [6]): 0.2 µg/mL
2 | Nc1nc(/C(=N/OCc2ccccc2)C(=O)N[C@@H]2C(=O)N3C(C(=O)O)=C(CSc4nnc(-c5ccc(O)c(O)c5)s4)CS[C@H]23)cs1 [Ex. 32, 7β-[2-(2-aminothiazol-4-yl)-2-benzyloxviminoacetamido]-3-[5-(3,4-dihydroxvphenvl)-1,3,4-thiadiazol-2-yl]thiomethyl-3-cephem-4-carboxylic acid trifluoroacetate] | 0.39 | – | 0.0125 | 0.39 | 0.39 | 0.2 | 0.1 | – | 0.2 | 12.5 | < 0.006 | – | < 0.006 | 1.56 | > 100 | 0.78 | < 0.006 | 0.025 | 0.78 | 0.0125 | MIC (S. aureus 209P NIHJ-JC1; [2]): 0.39 µg/mL; MIC (E. cloacae 963; [11]): 0.1 µg/mL; MIC (Ps. aeruginosa AK 109; [2]): 0.39 µg/mL
3 | Nc1nc(/C(=N/OC2(C(=O)O)CC2)C(=O)N[C@@H]2C(=O)N3C(C(=O)O)=C(CSc4nnc(-c5ccc(O)c(O)c5)s4)CS[C@H]23)cs1 [Ex. 35, disodium 7β-[2-(2-aminothiazol-4-yl)-2-(1-carboxylate-1-cyclooropoxyimino)acetamido]-3-[5-(3,4-dihydroxyphenyl)-1,3,4-thiadiazol-2-yl]thiomethyl-3-cephem-4-carboxylate] | – | 0.39 | < 0.006 | 0.2 | 0.025 | 0.0125 | 0.05 | – | 0.05 | 0.39 | < 0.006 | 0.05 | < 0.006 | < 0.006 | – | 0.39 | < 0.006 | 0.025 | – | 0.0125 | MIC (A. calcoaceticus No. 4; [12]): 0.05 µg/mL; MIC (S. aureus 209P NIHJ-JC1; [2]): 12.5 µg/mL; MIC (Ps. aeruginosa AKR17; AKR17, 16 h, read-out: Minimum Inhibitory Concentration (MIC), Ps. aeruginosa AKR17, 10^6 CFU/ml): 1.56 µg/mL; MIC (Ps. aeruginosa AK 109; [6]): 0.2 µg/mL
4 | CC(C)ON=C(C(=O)NC1C(=O)N2C(C(=O)O)=C(CSc3nc(-c4ccc(O)c(O)c4)cs3)CSC12)c1csc(N)n1 (stereo not drawn) [Ex. 41, sodium 7β-[2-(2-aminothiazol-4-yl)-2-isooropoxyiminoacetamido]-3-[4-(3,4-dihydroxyphenyl)-thiazol-2-yl]thiomethyl-3-cechem-4-carboxylate] | 0.39 | – | 0.025 | 0.2 | 0.39 | 0.05 | 0.05 | 1.56 | 0.2 | – | < 0.006 | – | 0.0125 | < 0.006 | 50 | 0.78 | 0.05 | 0.05 | 0.78 | 0.1 | MIC (S. marcescens No. 16-2; [13]): 6.25 µg/mL; MIC (E. cloacae 963; [11]): 0.1 µg/mL; MIC (Ps. aeruginosa AK 109; [2]): 0.39 µg/mL
5 | C=CCON=C(C(=O)NC1C(=O)N2C(C(=O)O)=C(CSc3nc(-c4ccc(O)c(O)c4)cs3)CSC12)c1csc(N)n1 (stereo not drawn) [Ex. 42, sodium 78-[2-allyloxyimino-2-(2-aminothiazol-4-yl)acetamido]-3-[4-(3,4-dihydroxyphenyl)-thiazol-2-yl]thiomethyl-3-cephem-4-carboxylate] | 0.39 | – | 0.0125 | 0.2 | 3.12 | 0.05 | 0.05 | 0.78 | 0.39 | – | < 0.006 | 0.05 | 0.025 | 0.025 | 100 | 0.78 | 0.1 | 0.05 | 0.78 | 0.2 | MIC (S. marcescens No. 16-2; [13]): 6.25 µg/mL; MIC (Ps. aeruginosa AK 109; [14]): 0.78 µg/mL
6 | Nc1nc(C(=NOCC(=O)O)C(=O)NC2C(=O)N3C(C(=O)O)=C(CSc4nc(-c5ccc(O)c(O)c5)cs4)CSC23)cs1 (stereo not drawn) [Ex. 43, disodium 7β-[2-(2-aminothiazol-4-yl)-2-carboxylatemethoxyimincacetamido]-3-[4-(3,4-dihydroxyphenyl)thiazol-2-yl]thiomethvl-3-cephem-4-carboxylate] | – | 0.39 | < 0.006 | 0.2 | 0.39 | 0.05 | 0.05 | – | 0.2 | – | < 0.006 | – | 0.025 | 0.025 | – | 0.78 | < 0.006 | 0.05 | – | 0.1 | MIC (A. calcoaceticus No. 4; [12]): 0.2 µg/mL; MIC (S. aureus 209P NIHJ-JC1; [2]): 12.5 µg/mL; MIC (S. marcescens No. 16-2; [13]): 1.56 µg/mL; MIC (E. cloacae 963; [11]): 0.1 µg/mL; MIC (Ps. aeruginosa AKR17; AKR17, 16 h, read-out: Minimum Inhibitory Concentration (MIC)): 12.5 µg/mL; MIC (Ps. aeruginosa AK 109; [14]): 0.78 µg/mL
